Here are results for three compounds from article PMC10977697 (PLOS ONE, 2024).

Where a SMILES comes first, the peptide text is derived from it. A value given as a limit tells only on which side of the number the result lay.

In assay [1] the test system is Notch2Long. The assay can be described thus: Spot phage ELISA, Notch2Long. It is filed as binding, human. As to conditions: Table 3, affinity maturation clones. In general terms: An ELISA detects its analyte on a solid surface through an enzyme-linked reagent.
Assay [2] has as its target T1, Notch2Long (Notch2 EGF6-EGF12) (Homo sapiens, UniProt Q04721).
T1 construct: Biotinylated N2L protein (D219–E418, made in-house); His tag (cleaved yes); made in house; host or cells: CHO
T1 sequence (Q04721 219-418): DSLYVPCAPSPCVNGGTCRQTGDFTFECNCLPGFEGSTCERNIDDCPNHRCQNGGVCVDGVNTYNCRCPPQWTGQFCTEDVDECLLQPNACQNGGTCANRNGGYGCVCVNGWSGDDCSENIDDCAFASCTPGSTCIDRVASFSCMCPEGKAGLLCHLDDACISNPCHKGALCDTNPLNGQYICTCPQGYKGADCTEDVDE
The assay can be described thus: SPR binding of synthetic DCPs to Notch2Long. To be noted: Biacore S200, 25°C, 50 μL/min; synthetic in vitro folded peptide, 3-fold dilution from 100 μM; biotinylated N2L on chip SA; steady state fitting; at least three independent experiments; n/d = no binding. As to the method:
(§1) All binding experiments were performed using a Biacore S200 instrument (GE Healthcare) at 25°C at a flow rate of 50 μL/min. The kinetics and affinity measurements were carried out using either single-cycle or multi-cycle kinetics (SCK or MCK), solvent corrected and referenced by subtracting the signal to the blank flow cell. Binding affinity and kinetic parameters (association and dissociation rate constants, and dissociation equilibrium constant) were calculated with the Biacore S200 Evaluation Software (version 1.1.1, Cytiva) using either a 1:1 binding model or a steady-state equilibrium model (according to the manufacturer’s instructions).
Biotinylated N2L protein (D219–E418, made in-house) and NRR protein (A1423–Q1677, made in-house) were captured at around 500, 1000 and 1500 RU on Sensor Chip SA (Cytiva).
For orientation: In SPR one partner is held on a chip, and binding of the other changes the refractive index at the surface.

The test system of assay [3] is Notch 2. The assay can be described thus: Phage competition ELISA on Notch 2. To be noted: N2L_EET03 peptide against N2L_EET31 displaying phage (Fig 5C). It is filed as binding, human. An excerpt:
Subsequently, we selected another primary hit, N2L.EET31, for affinity maturation as outlined in Fig 5A with improved outcome. Despite displaying a weak ELISA signal, N2L.EET31 was identified as the most abundant sequence by NGS analysis (56.6% in round 4). […] Due to these observations, N2L.EET31 was selected as another candidate for affinity maturation. An NNK-walking experiment (described in the methods section) provided valuable information on the functional importance of individual loop residues. […] These residues are either crucial for binding or play a critical role in overall peptide folding. […] Based on this information, we designed hard randomization libraries for Loop 2 and Loop 3_4 as part of the second generation of affinity maturation.

Assay [4] addresses T2, HtrA1 FL (Homo sapiens, UniProt Q92743).
T2 construct: HtrA1 (Q23-P480, 5654, Tni Baculovirus); made in house; host or cells: Trichoplusia ni (Tni) cells, baculovirus
The experiment in a line: HtrA1 enzyme assay with substrate H2-OPT. The class given is biochemical. To be noted: 20 μM DCP, 1 nM HtrA1, 5 μM H2-OPT, 15 min pre-incubation, 37°C, pH 8.0, 0.1% DMSO; average of three independent experiments (Fig 3B). How it is done:
Human full-length HtrA1 (HtrA1 FL) was expressed in Trichoplusia ni cells and purified as described. Enzyme assays with the fluorescence-quenched synthetic substrate Mca-[…](Dnp)KK (H2-OPT) were carried out essentially as described (Eigenbrot 2012). DCP stock solutions in DMSO were diluted in 50 mM Tris-HCl, pH 8.0, 200 mM NaCl, 0.25% CHAPS (assay buffer) and incubated with HtrA1 in 96-well black optical bottom plates for 15 min at 37°C. A 10 mM stock solution of H2-OPT in DMSO was diluted with water, prewarmed at 37°C and then added to the DCP-enzyme mixtures. The final concentrations in the reaction mixtures were: 1 nM HtrA1, 20 μM DCP, 5 μM H2-OPT, 0.1% DMSO. Substrate cleavage was measured at 37°C on a SPECTRAmax M5 microplate reader (Molecular Devices) and the initial rates of cleavage determined. […] The enzyme activities were expressed as percent of control values (without DCP). The determined values represent the average ± S.D. of three independent experiments.

Assay [5] deals with T2, HtrA1 FL. It is filed as binding. To be noted: Biacore S200, 25°C; biotinylated HtrA1 FL on chip SA; 10 mM HEPES (8.0), 200mM NaCl, 0.25% CHAPS, 5% DMSO; steady state fitting; n/d = no binding; read-out: Kd(μM) SPR.
The test system of assay [6] is HtrA1. It is filed as binding, human. As to conditions: ratio of signal for target protein over BSA background.
Assay [7] concerns the target T3, Her3-Fc (Homo sapiens, UniProt P21860).
T3 construct: purchased R&D 348-RB
The assay can be described thus: Spot phage ELISA, Her3-Fc. The class given is binding.

Assay [8] concerns the target T3, Her3-Fc. The assay can be described thus: SPR binding to Her3-Fc. To be noted: Biacore S200, 25°C; Her3-Fc Avi-tag on chip SA; HBS-EP+ plus 1% DMSO; MCK. As to the method: as §1
Her3-Fc Avi-tag (R&D) was captured at about 1200 and 3000 RU on Series S Sensor Chip SA (Cytiva). The SPR measurements were done in HBS-EP+ buffer (0.01 M HEPES pH 7.4, 0.15 M NaCl, 3 mM EDTA, 0.05% v/v Surfactant P20) plus 1% v/v DMSO.

T3 sequence (P21860 20-643 limits assumed): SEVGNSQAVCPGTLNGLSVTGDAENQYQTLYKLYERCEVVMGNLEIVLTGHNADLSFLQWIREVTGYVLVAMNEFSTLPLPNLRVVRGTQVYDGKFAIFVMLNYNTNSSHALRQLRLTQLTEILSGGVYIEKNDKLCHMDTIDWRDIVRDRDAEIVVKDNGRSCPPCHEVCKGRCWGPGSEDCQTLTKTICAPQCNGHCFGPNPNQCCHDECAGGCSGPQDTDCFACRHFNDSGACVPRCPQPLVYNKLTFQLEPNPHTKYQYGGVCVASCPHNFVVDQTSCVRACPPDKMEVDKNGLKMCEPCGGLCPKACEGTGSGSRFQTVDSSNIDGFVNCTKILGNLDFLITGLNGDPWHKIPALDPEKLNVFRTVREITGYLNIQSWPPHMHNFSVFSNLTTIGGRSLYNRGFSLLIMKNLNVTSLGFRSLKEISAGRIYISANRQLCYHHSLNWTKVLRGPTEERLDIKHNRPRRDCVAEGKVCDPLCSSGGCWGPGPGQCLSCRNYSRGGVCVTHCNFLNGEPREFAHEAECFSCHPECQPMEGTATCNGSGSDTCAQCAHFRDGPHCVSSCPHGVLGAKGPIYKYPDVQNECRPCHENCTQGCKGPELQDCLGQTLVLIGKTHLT
T2 sequence (Q92743 23-480): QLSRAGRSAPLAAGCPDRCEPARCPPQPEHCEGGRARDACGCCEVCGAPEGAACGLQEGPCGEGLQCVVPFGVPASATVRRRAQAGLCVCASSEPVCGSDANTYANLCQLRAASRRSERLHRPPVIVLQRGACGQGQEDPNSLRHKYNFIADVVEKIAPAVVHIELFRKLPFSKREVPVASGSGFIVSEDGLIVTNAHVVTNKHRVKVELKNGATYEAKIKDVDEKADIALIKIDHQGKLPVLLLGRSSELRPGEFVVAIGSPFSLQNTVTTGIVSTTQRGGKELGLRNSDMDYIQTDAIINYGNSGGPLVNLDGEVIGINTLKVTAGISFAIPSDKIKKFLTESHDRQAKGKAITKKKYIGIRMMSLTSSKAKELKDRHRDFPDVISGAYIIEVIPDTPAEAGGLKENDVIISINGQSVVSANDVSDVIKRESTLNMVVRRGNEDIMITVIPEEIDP

In general, Kd refers to the equilibrium constant for the complex coming apart. As to `CC[C@H](C)[C@@H]1NC(=O)[C@@H](NC(=O)CN)CSSC[C@@H]2NC(=O)CNC(=O)[C@H](C)NC(=O)[C@H](CC(C)C)NC(=O)[C@@H]3CSSC[C@@H](C(=O)NCC(=O)O)NC(=O)[C@H](CCC(N)=O)NC(=O)[C@H]([C@@H](C)CC)NC(=O)[C@H](Cc4c[nH]c5ccccc45)NC(=O)[C@H](C(C)C)NC(=O)[C@H](CCC(=O)O)NC(=O)[C@H](CSSC[C@H](NC(=O)[C@H](Cc4c[nH]c5ccccc45)NC(=O)[C@H](CC(C)C)NC(=O)[C@H](Cc4c[nH]cn4)NC(=O)[C@H](CO)NC(=O)[C@H](CCCCN)NC1=O)C(=O)N[C@@H](CCCCN)C(=O)N[C@@H](CCC(N)=O)C(=O)N[C@@H](CC(=O)O)C(=O)N[C@@H](CO)C(=O)N[C@@H](CC(=O)O)C(=O)N3)NC(=O)[C@H](C(C)C)NC2=O` [N2L.EET31] (HELM PEPTIDE1{G.C.I.K.S.H.L.W.C.K.Q.D.S.D.C.L.A.G.C.V.C.E.V.W.I.Q.C.G}$PEPTIDE1,PEPTIDE1,2:R3-19:R3|PEPTIDE1,PEPTIDE1,9:R3-21:R3|PEPTIDE1,PEPTIDE1,15:R3-27:R3$$$V2.0; N-terminus and C-terminus assumed), in assay [1] (signal over BSA background), the “s/n ratio” value was 0.4. Further, in assay [1] (spot phage ELISA signal, display (p8 or p3) not given per clone), the ELISA amounted to 0.1. The compound further gave a Kd in assay [2] greater than 100 µM. Also, the “competition in phage competition ELISA” value in assay [3] was “exhibited competition with N2L.EET03”.

As for `CC[C@H](C)[C@@H]1NC(=O)[C@H](CCC(N)=O)NC(=O)[C@H](CCCNC(=N)N)NC(=O)[C@H](C(C)C)NC(=O)[C@@H]2CSSC[C@H](NC(=O)[C@H](CC(=O)O)NC(=O)[C@H](Cc3ccccc3)NC(=O)[C@H](C)N)C(=O)N[C@@H](CC(C)C)C(=O)NCC(=O)N[C@@H](CCC(N)=O)C(=O)N[C@H]3CSSC[C@H](NC(=O)[C@H](Cc4ccc(O)cc4)NC(=O)[C@H](Cc4c[nH]cn4)NC(=O)[C@H](CO)NC(=O)[C@H](CC(C)C)NC(=O)[C@H](CC(N)=O)NC(=O)[C@H]([C@@H](C)CC)NC(=O)[C@H](C(C)C)NC(=O)[C@H](CCCNC(=N)N)NC(=O)[C@H](Cc4c[nH]c5ccccc45)NC(=O)[C@H](C(C)C)NC1=O)C(=O)N[C@@H](CC(N)=O)C(=O)N[C@@H](CO)C(=O)N[C@@H](CO)C(=O)N[C@H](C(=O)N[C@H](C(=O)N[C@@H](CCCNC(=N)N)C(=O)O)[C@@H](C)O)CSSC[C@H](NC(=O)[C@H](CCCNC(=N)N)NC(=O)CNC3=O)C(=O)N[C@@H](CC(=O)O)C(=O)N[C@@H](Cc1ccccc1)C(=O)N[C@@H](Cc1c[nH]cn1)C(=O)N[C@@H](CCCCN)C(=O)N[C@@H](CC(C)C)C(=O)N[C@@H](CCC(N)=O)C(=O)N2` [HtrA1_AVR62] (HELM PEPTIDE1{A.F.D.C.L.G.Q.C.G.R.C.D.F.H.K.L.Q.C.V.R.Q.I.V.W.R.V.I.N.L.S.H.Y.C.N.S.S.C.T.R}$PEPTIDE1,PEPTIDE1,4:R3-18:R3|PEPTIDE1,PEPTIDE1,8:R3-33:R3|PEPTIDE1,PEPTIDE1,11:R3-37:R3$$$V2.0; N-terminus and C-terminus assumed), the “inhibition of HtrA1 activity” value in assay [4] is “more than 75%”. For the same compound, the Kd in assay [5] was greater than 15 µM. Besides, in assay [6], the S/N is listed as 19.5.

In the case of `CC(C)C[C@@H]1NC(=O)[C@H](CCCNC(=N)N)NC(=O)[C@H](CCC(N)=O)NC(=O)[C@@H]2CSSC[C@@H](C(=O)N[C@@H](CCC(=O)O)C(=O)N[C@@H](CCC(=O)O)C(=O)O)NC(=O)[C@H](CCCCN)NC(=O)[C@@H]3CSSC[C@H](NC(=O)[C@H](CCC(=O)O)NC(=O)[C@H](CCCCN)NC(=O)[C@H](CO)NC(=O)[C@H]([C@@H](C)O)NC(=O)[C@H]([C@@H](C)O)NC(=O)[C@@H](NC(=O)[C@H](CO)NC(=O)[C@@H](N)C(C)C)CSSC[C@H](NC(=O)[C@H](CCC(N)=O)NC(=O)[C@H](CCC(=O)O)NC(=O)CNC(=O)[C@H](Cc4c[nH]c5ccccc45)NC(=O)[C@H](CO)NC(=O)[C@H]([C@@H](C)O)NC(=O)[C@H](CC(N)=O)NC(=O)[C@H](Cc4c[nH]cn4)NC1=O)C(=O)N[C@@H](C(C)C)C(=O)N[C@@H]([C@@H](C)O)C(=O)N[C@@H](CCCCN)C(=O)N[C@@H](Cc1ccccc1)C(=O)N3)C(=O)N[C@@H](Cc1c[nH]c3ccccc13)C(=O)N[C@@H](CO)C(=O)N[C@@H](C(C)C)C(=O)N2` [Her3-Fc_ChTx1], the S/N in assay [7] (ratio of signal for target protein over BSA background) worked out at 22.6. This compound had an ELISA in assay [7] (spot phage ELISA signal, DCP displayed on M13 p8, L1 2) of 1.74. Moreover, the Kd in assay [8] was greater than 10 µM.
